Test results: patent publication US20240182466A1, “A Crystal Form of a Fluorine-substituted Pyridopyrazole Compound and a Preparation Method Thereof” (JUMBO DRUG BANK CO., LTD, priority 2021, published 2024)
pIC50: −log10 of the molar value.

What was measured:
[1] = Hygroscopicity by dynamic vapor sorption (DVS); format: physicochemical; conditions: 80% RH/25° C.
Procedure: Instrument model: SMS DVS Intrinsic Plus dynamic steam adsorption instrument.
Test condition: a sample (10-20 mg) is taken and placed in a DVS sample tray for testing.
Detailed DVS parameters are as follows:
Balance: dm/dt=0.002%/min (minimum: 10 min, and maximum: 180 min).
Drying: it is dried at 0% relative humidity (RH) until dm/dt≤0.002%/min or maximum 180 min.
RH (%) test step range: 0%-95%-0%.
SMS DVS Intrinsic Plus dynamic steam adsorption instrument.
A sample (10-20 mg) was taken and placed in a DVS sample tray for testing.

[2] = Solid stability test of crystal form (XRPD); format: physicochemical; conditions: influencing factors and accelerated conditions
Procedure: According to the “Guiding Principles for Stability Test of Raw Materials and Preparations” (General Rule 9001 of Part Four of the Chinese Pharmacopoeia 2015 Edition), the stability of the crystal form A of the compound in Formula (I) was investigated under influencing factors ((high temperature (60° C., open), high humidity (room temperature/relative humidity 92.5%, open), strong light (visible light intensity of 5000 lux and ultraviolet intensity of […], open), and accelerated conditions (40° C./75% RH, open) and (60° C./75% RH, open)).
About 20 mg of the crystal form A of the compound in Formula (I) was weighed respectively, and it was placed at the bottom of a glass sample bottle, and spread into a thin layer. Its sample was completely exposed for sampling. The samples placed under different conditions were sampled for testing (XRPD) on day 5, day 10, 1 month, 2 months, and 3 months.

ITK = ITK (Homo sapiens (Human), UniProt Q08881); assay: ITK kinase test (33P-ATP filter binding); format: biochemical
Chain of ITK (Q08881 whole entry): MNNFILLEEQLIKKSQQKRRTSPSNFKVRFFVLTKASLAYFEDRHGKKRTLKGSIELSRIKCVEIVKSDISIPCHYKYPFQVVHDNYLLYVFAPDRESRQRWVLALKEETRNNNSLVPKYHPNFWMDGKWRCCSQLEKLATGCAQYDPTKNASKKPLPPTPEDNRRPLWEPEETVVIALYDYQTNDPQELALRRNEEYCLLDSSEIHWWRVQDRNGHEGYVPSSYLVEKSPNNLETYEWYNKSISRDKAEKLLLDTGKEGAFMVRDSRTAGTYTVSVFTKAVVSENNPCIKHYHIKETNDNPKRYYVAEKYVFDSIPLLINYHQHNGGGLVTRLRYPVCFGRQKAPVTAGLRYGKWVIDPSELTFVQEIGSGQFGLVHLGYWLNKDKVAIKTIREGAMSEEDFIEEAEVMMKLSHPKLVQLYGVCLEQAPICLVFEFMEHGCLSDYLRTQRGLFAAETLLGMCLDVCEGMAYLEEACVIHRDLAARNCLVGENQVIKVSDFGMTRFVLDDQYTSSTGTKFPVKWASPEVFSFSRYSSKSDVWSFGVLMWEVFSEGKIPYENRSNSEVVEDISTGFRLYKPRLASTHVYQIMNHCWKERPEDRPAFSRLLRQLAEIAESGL
Procedure: (§1) Experimental example 1: EGFR, ITK, TEC, and BTK kinase'test.
(§2) Buffer condition: 20 mM HEPES(pH 7.5), 10 mM MgCl2, 1 mM EGTA, 0.02% Brij35, 0.02 mg/mL BSA, 0.1 mm Na3VO4, 2 mm; DTT, 1% DMSO.
(§3) 2.1. An indicator substrate was prepared in a reaction buffer prepared newly.
(§4) 2.2. A cofactor required was transferred to the substrate solution above.
(§5) 2.3. A kinase indicated was injected into the substrate solution and mixed gently.
(§6) 2.4. An acoustic technology was used to convey a compound in DMSO to a kinase reaction mixture (Echo550).
(§7) 2.5. ^33P-ATP (specific activity 0.01 μci/μL, finally) was fed into the reaction mixture to initiate a reaction. (ATP final concentrations were 2 μM, 5 μM, and 5 μM respectively).
(§8) 2.6. The kinase reaction was incubated at room temperature for 120 min.
(§9) 2.7. The reaction was recorded on P81 ion exchange paper (Whatman #3698-915).
(§10) 2.8. 0.75% phosphoric acid was widely used to clean a filter.
(§11) 2.9. The remaining radioactive phosphorylation substrate on filter paper was measured.
(§12) 3. Data analysis: the kinase activity data was expressed as a percentage of the remaining kinase activity in the test sample compared to the carrier (dimethyl sulfoxide) reaction. The IC50 value and curve fitting were obtained by using Prism4 software (GraphPad).

BTK = BTK (Homo sapiens (Human), UniProt Q06187); assay: BTK kinase test (33P-ATP filter binding); format: biochemical; conditions: 120 min at room temperature
Chain of BTK (Q06187 whole entry): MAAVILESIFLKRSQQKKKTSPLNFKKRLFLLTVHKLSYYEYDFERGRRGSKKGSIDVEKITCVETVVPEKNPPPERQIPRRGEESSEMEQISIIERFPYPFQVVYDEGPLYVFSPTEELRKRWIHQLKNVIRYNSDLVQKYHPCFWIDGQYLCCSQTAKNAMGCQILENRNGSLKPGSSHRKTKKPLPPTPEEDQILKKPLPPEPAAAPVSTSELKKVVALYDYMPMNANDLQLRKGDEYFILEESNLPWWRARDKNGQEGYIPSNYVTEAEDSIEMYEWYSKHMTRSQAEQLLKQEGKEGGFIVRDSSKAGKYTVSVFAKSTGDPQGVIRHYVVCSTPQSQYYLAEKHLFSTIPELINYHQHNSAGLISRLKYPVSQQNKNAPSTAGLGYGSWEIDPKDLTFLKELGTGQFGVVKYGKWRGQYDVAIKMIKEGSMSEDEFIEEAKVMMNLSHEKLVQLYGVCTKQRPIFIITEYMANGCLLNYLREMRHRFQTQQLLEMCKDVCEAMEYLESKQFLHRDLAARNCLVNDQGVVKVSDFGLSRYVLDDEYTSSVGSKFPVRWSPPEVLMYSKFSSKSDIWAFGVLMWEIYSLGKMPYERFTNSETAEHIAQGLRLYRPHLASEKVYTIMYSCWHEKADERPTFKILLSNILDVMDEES
Procedure: as §1, §2, §3, §4, §5, §6, §7, §8, §9, §10, §11, §12

EGFR = EGFR (Homo sapiens (Human), UniProt P00533); assay: EGFR kinase test (33P-ATP filter binding); format: biochemical
Chain of EGFR (P00533 25-1210): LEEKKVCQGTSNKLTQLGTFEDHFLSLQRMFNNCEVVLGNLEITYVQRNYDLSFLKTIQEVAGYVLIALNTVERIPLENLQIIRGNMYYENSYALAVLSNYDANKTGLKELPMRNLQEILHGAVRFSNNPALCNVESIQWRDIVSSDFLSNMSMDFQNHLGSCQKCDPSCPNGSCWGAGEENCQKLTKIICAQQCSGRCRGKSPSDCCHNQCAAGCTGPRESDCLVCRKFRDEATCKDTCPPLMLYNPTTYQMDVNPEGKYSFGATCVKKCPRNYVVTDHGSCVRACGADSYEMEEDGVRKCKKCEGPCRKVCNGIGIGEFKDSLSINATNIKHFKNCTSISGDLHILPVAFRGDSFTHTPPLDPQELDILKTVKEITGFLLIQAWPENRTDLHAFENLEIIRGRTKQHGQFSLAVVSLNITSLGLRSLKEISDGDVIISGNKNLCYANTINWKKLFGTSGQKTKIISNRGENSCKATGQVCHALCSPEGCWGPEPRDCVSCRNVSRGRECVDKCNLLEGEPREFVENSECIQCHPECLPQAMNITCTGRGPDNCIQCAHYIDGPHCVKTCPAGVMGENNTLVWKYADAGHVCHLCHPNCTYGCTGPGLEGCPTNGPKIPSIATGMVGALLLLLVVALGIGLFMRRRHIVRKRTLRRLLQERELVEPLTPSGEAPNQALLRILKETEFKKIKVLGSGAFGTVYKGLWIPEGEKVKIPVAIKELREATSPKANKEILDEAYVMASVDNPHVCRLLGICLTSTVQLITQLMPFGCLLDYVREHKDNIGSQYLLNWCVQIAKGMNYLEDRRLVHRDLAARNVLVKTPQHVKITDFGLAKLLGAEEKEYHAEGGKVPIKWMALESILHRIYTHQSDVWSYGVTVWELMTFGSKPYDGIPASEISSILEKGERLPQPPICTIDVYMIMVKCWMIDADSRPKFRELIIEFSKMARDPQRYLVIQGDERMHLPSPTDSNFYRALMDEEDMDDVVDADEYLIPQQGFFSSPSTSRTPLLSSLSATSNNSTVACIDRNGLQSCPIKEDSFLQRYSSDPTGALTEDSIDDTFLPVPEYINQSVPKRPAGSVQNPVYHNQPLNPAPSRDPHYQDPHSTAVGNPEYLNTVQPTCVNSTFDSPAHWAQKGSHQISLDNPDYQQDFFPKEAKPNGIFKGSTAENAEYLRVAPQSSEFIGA
Procedure: as §1, §2, §3, §4, §5, §6, §7, §8, §9, §10, §11, §12

TEC = TEC (Homo sapiens (Human), UniProt P42680); assay: TEC kinase test (33P-ATP filter binding); format: biochemical
Chain of TEC (P42680 whole entry): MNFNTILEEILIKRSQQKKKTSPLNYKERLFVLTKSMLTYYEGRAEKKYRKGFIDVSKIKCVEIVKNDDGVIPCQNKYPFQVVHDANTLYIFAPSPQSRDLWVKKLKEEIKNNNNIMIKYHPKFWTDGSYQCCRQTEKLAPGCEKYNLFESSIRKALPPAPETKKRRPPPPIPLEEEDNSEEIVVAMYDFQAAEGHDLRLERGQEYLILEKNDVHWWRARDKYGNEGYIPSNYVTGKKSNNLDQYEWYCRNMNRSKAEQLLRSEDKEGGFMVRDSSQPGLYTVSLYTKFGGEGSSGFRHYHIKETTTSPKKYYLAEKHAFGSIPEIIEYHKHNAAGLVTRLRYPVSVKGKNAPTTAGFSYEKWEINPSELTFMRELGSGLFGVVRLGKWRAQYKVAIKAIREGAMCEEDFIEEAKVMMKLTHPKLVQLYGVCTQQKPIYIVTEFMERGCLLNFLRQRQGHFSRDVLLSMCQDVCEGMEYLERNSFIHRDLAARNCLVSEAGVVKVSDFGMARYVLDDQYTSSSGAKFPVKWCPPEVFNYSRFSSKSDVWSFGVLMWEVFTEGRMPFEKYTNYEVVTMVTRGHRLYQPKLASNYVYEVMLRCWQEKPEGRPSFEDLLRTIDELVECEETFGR
Procedure: as §1, §2, §3, §4, §5, §6, §7, §8, §9, §10, §11, §12

[3] = 33P-ATP, 120 min at room temperature

SMILES	Hygroscopic classification [1]	ΔW, hygroscopic weight increase [1] [%]	Solid stability, conclusion in words [2]	pIC50 (ITK; [3])	EGFR, ITK, TEC, and BTK activity ratio: ITK to BTK (ITK; IC50 ITK / IC50 BTK)	pIC50 (BTK)	pIC50 (EGFR; [3])	EGFR, ITK, TEC, and BTK activity ratio: EGFR to BTK (EGFR; IC50 EGFR / IC50 BTK)	pIC50 (TEC; [3])	EGFR, ITK, TEC, and BTK activity ratio: TEC to BTK (TEC; IC50 TEC / IC50 BTK) [times]
C=CC(=O)N1CCC[C@@H](c2nn(-c3ccc(Oc4cccc(F)c4F)cc3)c3cncc(F)c23)C1	slight hygroscopicity	0.23	good stability	–	–	–	–	–	–	–
C=CC(=O)N1CCC[C@H](c2nn(-c3ccc(Oc4cccc(F)c4F)cc3)c3cncc(F)c23)C1 (single isomer, unassigned) [Compound 1B]	–	–	–	5.27	2513 times,	8.67	6.08	383 times,	7.13	34
